Tests used:
[1] = biological target: T1, ATM (Homo sapiens, UniProt Q13315); test: ATM inhibition test (phosphorylation of Chk2 generated by ionizing radiation, AlphaScreen SureFire); format: cell-based; conditions: phosphorylated Chk2 in NCI-H460 cells, ionizing radiation 8Gy, 1 hour after test compound treatment; read-out: ATM inhibitory activity
T1 construct: detecting phosphorylation of Chk2 in a human non-small cell lung cancer cell line NCI-H460 (ATCC company); host or cells: NCI-H460 human non-small cell lung cancer cells
T1 sequence (Q13315 whole entry): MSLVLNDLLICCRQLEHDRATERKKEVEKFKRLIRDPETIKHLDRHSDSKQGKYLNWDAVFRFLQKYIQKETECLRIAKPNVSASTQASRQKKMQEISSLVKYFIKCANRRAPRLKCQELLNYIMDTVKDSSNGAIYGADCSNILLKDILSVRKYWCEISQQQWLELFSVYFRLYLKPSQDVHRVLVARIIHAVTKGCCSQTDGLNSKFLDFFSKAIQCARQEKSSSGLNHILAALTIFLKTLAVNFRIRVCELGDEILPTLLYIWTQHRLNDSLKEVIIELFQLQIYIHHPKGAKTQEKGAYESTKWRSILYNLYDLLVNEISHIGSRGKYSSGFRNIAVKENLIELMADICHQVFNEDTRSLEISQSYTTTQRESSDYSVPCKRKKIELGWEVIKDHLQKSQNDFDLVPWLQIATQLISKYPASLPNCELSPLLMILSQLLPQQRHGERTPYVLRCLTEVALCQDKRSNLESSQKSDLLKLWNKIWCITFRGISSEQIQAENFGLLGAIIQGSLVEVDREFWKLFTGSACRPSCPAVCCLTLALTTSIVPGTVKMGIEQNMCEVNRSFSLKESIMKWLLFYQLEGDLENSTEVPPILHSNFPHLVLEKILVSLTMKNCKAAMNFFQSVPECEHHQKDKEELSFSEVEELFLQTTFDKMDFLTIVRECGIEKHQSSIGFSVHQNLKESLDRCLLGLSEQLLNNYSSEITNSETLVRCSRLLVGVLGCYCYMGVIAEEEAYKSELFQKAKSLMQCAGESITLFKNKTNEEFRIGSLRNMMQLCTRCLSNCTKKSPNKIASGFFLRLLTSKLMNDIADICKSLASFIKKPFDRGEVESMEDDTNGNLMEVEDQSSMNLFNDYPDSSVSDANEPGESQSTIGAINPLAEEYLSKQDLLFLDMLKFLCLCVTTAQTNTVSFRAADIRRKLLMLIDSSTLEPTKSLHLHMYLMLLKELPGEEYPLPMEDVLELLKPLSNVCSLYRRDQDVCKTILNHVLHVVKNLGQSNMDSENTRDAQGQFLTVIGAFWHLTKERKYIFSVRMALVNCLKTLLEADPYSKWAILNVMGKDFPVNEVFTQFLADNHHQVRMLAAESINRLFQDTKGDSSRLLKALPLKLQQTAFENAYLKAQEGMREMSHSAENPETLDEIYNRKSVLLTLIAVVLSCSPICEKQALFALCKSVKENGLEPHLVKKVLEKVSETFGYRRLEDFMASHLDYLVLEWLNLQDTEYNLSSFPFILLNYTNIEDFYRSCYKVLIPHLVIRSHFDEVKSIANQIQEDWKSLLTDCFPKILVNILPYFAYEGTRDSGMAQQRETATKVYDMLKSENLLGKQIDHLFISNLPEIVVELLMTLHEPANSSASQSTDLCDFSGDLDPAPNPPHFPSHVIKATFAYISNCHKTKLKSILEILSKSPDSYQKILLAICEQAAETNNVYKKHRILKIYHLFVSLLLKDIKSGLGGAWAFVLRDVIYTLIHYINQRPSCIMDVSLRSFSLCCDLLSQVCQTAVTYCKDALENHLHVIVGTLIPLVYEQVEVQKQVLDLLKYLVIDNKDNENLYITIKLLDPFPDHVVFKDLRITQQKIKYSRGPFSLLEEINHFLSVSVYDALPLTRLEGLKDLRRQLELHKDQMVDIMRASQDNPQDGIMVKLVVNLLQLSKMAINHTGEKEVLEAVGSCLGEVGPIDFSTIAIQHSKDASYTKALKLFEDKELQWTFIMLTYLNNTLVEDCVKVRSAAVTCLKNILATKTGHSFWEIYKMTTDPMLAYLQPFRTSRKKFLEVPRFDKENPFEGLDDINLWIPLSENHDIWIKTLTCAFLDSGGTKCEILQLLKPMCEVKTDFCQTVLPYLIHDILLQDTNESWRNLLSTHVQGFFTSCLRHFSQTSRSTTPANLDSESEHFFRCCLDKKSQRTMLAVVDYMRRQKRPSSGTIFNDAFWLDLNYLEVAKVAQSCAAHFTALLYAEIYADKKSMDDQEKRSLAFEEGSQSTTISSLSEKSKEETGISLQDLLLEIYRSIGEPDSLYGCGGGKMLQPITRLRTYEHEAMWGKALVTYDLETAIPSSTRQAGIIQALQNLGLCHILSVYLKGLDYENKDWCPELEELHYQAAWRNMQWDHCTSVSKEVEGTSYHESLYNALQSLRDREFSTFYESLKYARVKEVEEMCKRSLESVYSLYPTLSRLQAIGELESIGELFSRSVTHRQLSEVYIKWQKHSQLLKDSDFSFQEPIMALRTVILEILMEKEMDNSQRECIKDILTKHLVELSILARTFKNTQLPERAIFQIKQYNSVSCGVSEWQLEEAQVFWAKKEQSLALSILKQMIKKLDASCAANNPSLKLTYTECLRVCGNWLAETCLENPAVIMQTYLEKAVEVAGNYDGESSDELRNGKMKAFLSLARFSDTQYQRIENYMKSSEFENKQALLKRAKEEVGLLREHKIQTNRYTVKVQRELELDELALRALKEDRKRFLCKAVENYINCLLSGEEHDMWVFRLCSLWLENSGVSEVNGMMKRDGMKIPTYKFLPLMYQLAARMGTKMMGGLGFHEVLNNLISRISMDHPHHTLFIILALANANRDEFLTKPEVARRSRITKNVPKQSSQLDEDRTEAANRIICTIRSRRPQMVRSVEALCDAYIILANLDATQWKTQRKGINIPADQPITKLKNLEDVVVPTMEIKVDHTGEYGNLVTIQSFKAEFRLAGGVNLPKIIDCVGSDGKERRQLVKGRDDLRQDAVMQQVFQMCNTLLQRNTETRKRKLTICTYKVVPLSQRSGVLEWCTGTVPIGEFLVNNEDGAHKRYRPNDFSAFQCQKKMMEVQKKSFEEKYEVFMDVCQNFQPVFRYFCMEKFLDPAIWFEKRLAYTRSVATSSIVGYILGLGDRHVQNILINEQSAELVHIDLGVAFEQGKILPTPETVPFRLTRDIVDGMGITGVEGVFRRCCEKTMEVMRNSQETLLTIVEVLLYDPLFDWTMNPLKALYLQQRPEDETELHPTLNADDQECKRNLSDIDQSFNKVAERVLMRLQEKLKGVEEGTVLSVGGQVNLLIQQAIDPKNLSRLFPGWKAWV
Procedure, shortened: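 In NCI-H460 cells, radiation-triggered Chk2 phosphorylation (8Gy, 1 h) is detected by AlphaScreen SureFire following 1 h compound exposure.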

[2] = system: human non-small cell lung cancer cell line NCI-H460; test: Cell proliferation inhibition test by sensitivity-enhancing to ionizing radiation (Cell Titer Glo); format: cell-based; conditions: concentration in which SER became 2, NCI-H460 cells, ionizing radiation 2 Gy, cultured 120 hour
Procedure, shortened: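 Cells seeded at 2×10^3 cells/mL in RPMI-1640 with 10% FBS; after 24 h, compound added (0.1% DMSO), and 30 min later half the plates irradiated at 2 Gy. After 120 hour at 37° C, viability by Cell Titer Glo luminescence; SER2 is the concentration giving SER of 2 by sigmoidal fit.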

| Compound | IC50 [1] [nM] | SER2 (concentration at which the radiation sensitivity-enhancement ratio reaches 2) ([2]; Homo sapiens, NCI-H460, 120 h) [nM] | SER2 (concentration at which the radiation sensitivity-enhancement ratio reaches 2) ([2]; Homo sapiens) [nM] | SER2 (concentration at which the radiation sensitivity-enhancement ratio reaches 2) [2] [nM] |
| --- | --- | --- | --- | --- |
| CN1CCC(Nc2ccc3c(c2)Sc2cccc(-c4cc(N5CCOCC5)cc(=O)[nH]4)c2S3)CC1 [Example 1-44-5, 6-(7-((1-Methylpiperidin-4-yl)amino)thianthren-1-yl)-4-morpholino pyridin-2(1H)-one] | < 100 | 500 to 2000 |  |  |
| Cc1ccnc(C(C)Nc2ccc3c(c2)Cc2cccc(-c4cc(N5CCOCC5)cc(=O)[nH]4)c2O3)c1 (centres unmarked) [Example 2-14-19, 6-(7-((1-(4-Methylpyridin-2-yl)ethyl)amino)-9H-xanthen-4-yl)-4-morpholino pyridin-2(1H)-one] | 100 to 500 | 100 to 500 |  |  |
| Cc1cccc(C(CO)Nc2ccc3c(c2)Sc2cccc(-c4cc(N5CCOCC5)cc(=O)[nH]4)c2S3)n1 (single isomer, unassigned) [Example 1-12-140-2, 6-(7-((2-hydroxy-1-(6-methylpyridin-2-yl)ethyl)amino)thianthren-1-yl)-4-morpholinopyridin-2(1H)-one] | < 100 | < 100 |  |  |
| COC[C@H](CN1CCC(C(F)(F)F)CC1)Nc1ccc2c(c1)Sc1cccc(-c3cc(N4CCOCC4)cc(=O)[nH]3)c1S2 [Example 1-46-8, (S)-6-(7-((1-Methoxy-3-(4-(trifluoromethyl)piperidin-1-yl)propan-2-yl)amino)thianthren-1-yl)-4-morpholino pyridin-2(1H)-one] | < 100 | 100 to 500 |  |  |
| Cc1cnc(C(C)Nc2ccc3c(c2)Sc2cccc(-c4cc(N5CCOCC5)cc(=O)[nH]4)c2S3)cn1 (centres unmarked) [Example 1-12-64, 6-(7-((1-(5-Methylpyrazin-2-yl)ethyl)amino)thianthren-1-yl)-4-morpholino pyridin-2(1H)-one] | < 100 | < 100 |  |  |
| CC(CCN1CCOCC1)Nc1ccc2c(c1)Sc1cccc(-c3cc(N4CCOCC4)cc(=O)[nH]3)c1S2 (centres unmarked) [Example 1-42-1, 4-Morpholino-6-(7-((4-morpholinobutan-2-yl)amino)thianthren-1-yl)pyridin-2(1H)-one] | < 100 | 100 to 500 |  |  |
| Cc1cnc(C(C)Nc2ccc3c(c2)Sc2cccc(-c4cc(N5CCOCC5)cc(=O)[nH]4)c2S3)cn1 (single isomer, unassigned) [Example 1-12-137-1, 6-(7-((1-(5-methylpyrazin-2-yl)ethyl)amino)thianthren-1-yl)-4-morpholinopyridin-2(1H)-one] | < 100 | < 100 |  |  |
| Cc1ccc(C(C)(C)Nc2ccc3c(c2)Sc2cccc(-c4cc(N5CCOCC5)cc(=O)[nH]4)c2S3)nc1 [Example 1-50-2, 6-(7-((2-(5-Methylpyridin-2-yl)propan-2-yl)amino)thianthren-1-yl)-4-morpholino pyridin-2(1H)-one] | < 100 | 100 to 500 |  |  |
| O=c1cc(N2CCOCC2)cc(-c2cccc3c2Sc2ccc(NCc4cc(Cl)ccn4)cc2S3)[nH]1 [Example 1-12-3, 6-(7-(((4-Chloropyridin-2-yl)methyl)amino)thianthren-1-yl)-4-morpholino pyridin-2 (1H)-one] | < 100 | 100 to 500 |  |  |
| CCC(CN1CCOCC1)Nc1ccc2c(c1)Sc1cccc(-c3cc(N4CCOCC4)cc(=O)[nH]3)c1S2 (centres unmarked) [Example 1-13-1, 4-Morpholino-6-(7-((1-morpholinobutan-2-yl)amino)thianthren-1-yl)pyridin-2(1H)-one] | < 100 | 100 to 500 |  |  |
| O=c1cc(N2CCOCC2)cc(-c2cccc3c2Sc2ccc(NC4CCN(Cc5cccnc5)CC4)cc2S3)[nH]1 [Example 1-24-17, 4-Morpholino-6-(7-((1-(pyridin-3-ylmethyl)piperidin-4-yl)amino)thianthren-1-yl)pyridin-2 (1H)-one] | < 100 | 100 to 500 |  |  |
| O=c1cc(N2CCOCC2)cc(-c2cccc3c2Oc2ccc(NCc4ccnc(Cl)c4)cc2C3)[nH]1 [Example 2-2-52, 6-(7-(((2-Chloropyridin-4-yl)methyl)amino)-9H-xanthen-4-yl)-4-morpholino pyridin-2 (1H)-one] | < 100 | 500 to 2000 |  |  |
| CNc1ncc(CNc2ccc3c(c2)Sc2cccc(-c4cc(N5CCOCC5)cc(=O)[nH]4)c2O3)cn1 [Example 4-4-13, 6-(8-(((2-(Methylamino)pyrimidin-5-yl)methyl)amino)phenoxathiin-4-yl)-4-morpholino pyridin-2(1H)-one] | < 100 | 100 to 500 |  |  |
| Cc1cnc(C(CCN2CCOCC2)Nc2ccc3c(c2)Sc2cccc(-c4cc(N5CCOCC5)cc(=O)[nH]4)c2S3)cn1 (centres unmarked) [Example 1-50-1, 6-(7-((1-(5-methylpyrazin-2-yl)-3-morpholinopropyl)amino)thianthren-1-yl)-4-morpholinopyridin-2(1H)-one] | < 100 | < 100 |  |  |
| O=c1cc(N2CCOCC2)cc(-c2cccc3c2Sc2ccc(NC(CF)CN4CCCCC4)cc2S3)[nH]1 (centres unmarked) [Example 1-41-2, 6-(7-((1-Fluoro-3-(piperidin-1-yl)propan-2-yl)amino)thianthren-1-yl)-4-morpholinopyridin-2(1H)-one] | < 100 |  | 100 to 500 |  |
| Cc1ccc(C(Nc2ccc3c(c2)Sc2cccc(-c4cc(N5CCOCC5)cc(=O)[nH]4)c2S3)C2CCN(C)CC2)nc1 (centres unmarked) [Example 1-35, 6-(7-(((1-methylpiperidin-4-yl)(5-methylpyridin-2-yl)methyl)amino)thianthren-1-yl)-4-morpholinopyridin-2(1H)-one] | < 100 | < 100 |  |  |
| COCc1cc(CNc2ccc3c(c2)Cc2cccc(-c4cc(N5CCOCC5)cc(=O)[nH]4)c2O3)ccn1 [Example 2-21-6, 6-(7-(((2-(Methoxymethyl)pyridin-4-yl)methyl)amino)-9H-xanthen-4-yl)-4-morpholino pyridin-2(1H)-one] | < 100 | 500 to 2000 |  |  |
| CC1COCCN1CCNc1ccc2c(c1)Sc1cccc(-c3cc(N4CCOCC4)cc(=O)[nH]3)c1S2 (centres unmarked) [Example 1-16-7, 6-(7-((2-(3-Methylmorpholino)ethyl)amino)thianthren-1-yl)-4-morpholinopyridin-2(1H)-one] | < 100 |  | 100 to 500 |  |
| O=c1cc(N2CCOCC2)cc(-c2cccc3c2Sc2ccc(NCCN4C5CCC4COC5)cc2S3)[nH]1 [Example 1-10-5, 6-(7-((2-(3-oxa-8-azabicyclo[3.2.1]octan-8-yl)ethyl)amino)thianthren-1-yl)-4-morpholinopyridin-2(1H)-one] | < 100 | 100 to 500 |  |  |
| COCC(CN1CCOCC1)Nc1ccc2c(c1)Sc1cccc(-c3cc(N4CCOCC4)cc(=O)[nH]3)c1S2 (single isomer, unassigned) [Example 1-17-1-2, 6-(7-((1-methoxy-3-morpholinopropan-2-yl)amino)thianthren-1-yl)-4-morpholinopyridin-2(1H)-one] | < 100 | < 100 |  |  |
| N#Cc1cccc(CNc2ccc3c(c2)Cc2cccc(-c4cc(N5CCOCC5)cc(=O)[nH]4)c2O3)n1 [Example 2-14-13, 6-(((5-(4-Morpholino-6-oxo-1,6-dihydropyridin-2-yl)-9H-xanthen-2-yl)amino)methyl) picolinonitrile] | < 100 | 100 to 500 |  |  |
| N#Cc1cccc(CNc2ccc3c(c2)Sc2cccc(-c4cc(N5CCOCC5)cc(=O)[nH]4)c2S3)n1 [Example 1-12-38, 6-(((6-(4-Morpholino-6-oxo-1,6-dihydropyridin-2-yl)thianthren-2-yl)amino)methyl)picolinonitrile] | < 100 | < 100 |  |  |
| Cc1ccc(C(Nc2ccc3c(c2)Sc2cccc(-c4cc(N5CCOCC5)cc(=O)[nH]4)c2S3)C2CC2)nc1 (centres unmarked) [Example 1-12-123, 6-(7-((Cyclopropyl(5-methylpyridin-2-yl)methyl)amino)thianthren-1-yl)-4-morpholino pyridin-2(1H)-one] | < 100 | 100 to 500 |  |  |
| COc1cccnc1CNc1ccc2c(c1)Sc1cccc(-c3cc(N4CCOCC4)cc(=O)[nH]3)c1O2 [Example 4-4-22, 6-(8-(((3-Methoxypyridin-2-yl)methyl)amino)phenoxathiin-4-yl)-4-morpholino pyridin-2(1H)-one] | < 100 | 500 to 2000 |  |  |
| Cc1ccc(C(Nc2ccc3c(c2)Sc2cccc(-c4cc(N5CCOCC5)cc(=O)[nH]4)c2S3)C2CN(C)CCO2)nc1 (single isomer, unassigned) [Example 1-52-2, 6-(7-(((4-methylmorpholin-2-yl)(5-methylpyridin-2-yl)methyl)amino)thianthren-1-yl)-4-morpholinopyridin-2(1H)-one] | < 100 |  |  | < 100 |

Source: patent US9586951B2 (FUJIFILM Corporation, priority 2013, dated 2017)
